Measured values taken from patent US20050271630A1, “Method for treating cancer” (MEDINET Co., Ltd., priority 2004, published 2005).
“And” between values parts separate entries of the source, which are not always exact repeats. Equal values may be shown once. “Also recorded” adds a separate entry of the source. Where a name gives a salt, the structure may show the parent alone. Read-outs that look alike come from different tables or passages of the source.

How the values were obtained:
[1] = gefitinib alone, 104 cases, Phase 2 study; cited from earlier work
[2] = test system: non-small cell lung carcinoma; assay: Activated autologous lymphocyte therapy combined with gefitinib or conventional chemotherapy, 15 cases at Seta Clinic; type: in vivo, human
Protocol: Next, studies were conducted for comparing a combination therapy with a conventional chemotherapy other than gefitinib and the method of the present invention.
The response ratio was 46.7%. […] The effective ratio including this was 53.3%. The highest number of administrations was 35, and 10.4 times of treatments on average were conducted.

[3] = test system: non-small cell lung carcinoma
[4] = test system: lung carcinoma (adenocarcinoma); assay: Single case: CD3-LAK plus IRESSA (gefitinib), person; details: for Response at examination: gefitinib 250 mg/day + CD3-LAK
[5] = test system: GIST (gastrointestinal stromal tumors); details: for Side effects: imatinib mesylate 200 mg/day
[6] = 7 chemotherapy / 8 gefitinib cases
[7] = 7 conventional chemotherapy cases / 8 gefitinib cases, with activated autologous lymphocyte therapy
[8] = of 18 cases, gefitinib + CD3-LAK
[9] = of 18 cases, gefitinib + activated autologous lymphocyte therapy

## COc1cc2ncnc(Nc3ccc(F)c(Cl)c3)c2cc1OCCCN1CCOCC1 [gefitinib]
[1]
  Response ratio: 18%
[2]; [6]
  Evaluation: Effective (percent): (62.5%)
  Evaluation: No effect (percent): (37.5%)
[2]; [7]
  The number of cases, Complete response: 0 cases
  The number of cases, Long no change: 0 cases
  The number of cases, No change: 3 cases
  The number of cases, Partial response: 5 cases
  The number of cases, Progressive disease: 0 cases
[2]; complete + partial response + long no change, 7 chemotherapy / 8 gefitinib cases
  Evaluation: Effective (number of cases): Effective 5 cases
[2]; gefitinib group (cases 8-15)
  Cases still alive: 7 cases
  Longest period of survival confirmed: 743 days
[2]; individual cases 1-15, at end of trace period
  Outcome at the end: Alive
[2]; no change + progressive disease, 7 chemotherapy / 8 gefitinib cases
  Evaluation: No effect (number of cases): 3 cases
[3]; 18 cases
  Evaluation: No effect (percent): (38.9%)
[3]; 18 cases, gefitinib + CD3-LAK
  New side effect caused by the combined use of the activated autologous lymphocytes: no new side effect
  Side effects: diarrhea, percent: 33%
  Side effects: nausea, percent: 17%
  Side effects: skin symptoms (eruption and dry skin), percent: 89%
[3]; individual cases 1-18, at end of trace period, gefitinib 250 mg/day + CD3-LAK
  Outcome at the end: Alive (17×) and Dead
[3]; of 18 cases, complete + partial response
  Evaluation: Effective (number of cases): Effective 11 cases
[3]; [8]
  Side effects: diarrhea, cases: 6 cases
  Side effects: nausea, cases: 3 cases
  Side effects: skin symptoms (eruption and dry skin), cases: 16 cases
[3]; [9]
  The number of cases, No change: 6 cases
  The number of cases, Partial response: 11 cases
  The number of cases, Progressive disease: 1 cases
[3]; of 18 cases, no change + progressive disease
  Evaluation: No effect (number of cases): No effect 7 cases
[4]; CT at examination on May 9 versus start of combination therapy (FIGS. 2 and 3)
  Lesioned site in CT image: almost disappeared
[4]; examination on Feb. 13, 2003, therapy started Oct. 2002
  Response at examination: considerable response
[4]; examination on May 9 (2003)
  Response at examination: remarkable response

## Cc1ccc(NC(=O)c2ccc(CN3CCN(C)CC3)cc2)cc1Nc1nccc(-c2cccnc2)n1 [imatinib mesylate]
[5]; Patient 2
  Duration of partial response since the start of the combination therapy: 21 months
  Increase in liver enzyme levels, GOT: 58 U/ml
  Increase in liver enzyme levels, GPT: 43 U/ml
  Side effects: itching with eczema of the face and limbs; also recorded: stomach discomfort; also recorded: diarrhea
[5]; Patient 2, three months after starting the therapy, 151 U/ml at start
  CA12-5 level: 26 U/ml
[5]; Patient 3
  Time without tumor progression since start of combination therapy: 25 months
[5]; Patient 3, combination therapy
  Side effects: diarrhea
[5]; Patient 3, imatinib mesylate 100 to 300 mg per day oral
  Side effects at the time of administration: side effects on their digestive organs
[5]; Patient 3, one month after the MRI (one year and two months)
  Change of foci: decreased slightly
[5]; Patient 3, one year and five months after starting the therapy
  Interpretation of PET: no extraordinary accumulation
[5]; Patient 3, one year and one month after starting the combination therapy, two foci
  Size of foci in MRI: 1.1 cm and 0.6 cm
[5]; Patient 3, since the combination therapy was started
  Tumor progression: had not progressed
